Experimental data taken from patent publication US20030055065A1, “Tricyclic amide and urea compounds useful for inhibition of G-protein function and for treatment of proliferative diseases” (priority 1993, published 2003).
Where “and” joins values, the source holds several entries; their conditions need not be identical. Equal entries are not always repeated. Where two headings read alike, the source gives them in different places.

Key:
[1] = test system: Normal human HEPM fibroblasts; assay: Cell Mat Assay: density of mat cells (mIC50); format: cell-based
Outline: (§1)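 Serial compound dilutions added 24 h after planting T24-BAG4 cells onto a mat of normal cells, then 14 d colony growth; monolayers glutaraldehyde-fixed and tumor cells X-Gal stained. tIC50 and mIC50 from microscope counts of colonies, cells per colony and mat cell density.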

[2] = target: T1, geranylgeranyl protein transferase (GGPT) I (Rattus norvegicus, UniProt P53610+Q04631); assay: Inhibition of geranylgeranyl protein transferase I (Ras-CVLL as acceptor); format: biochemical; conditions: enzyme inhibition
T1 construct: were partially purified from rat brain by ammonium sulfate fractionation followed by Q-Sepharose
T1 sequence (P53610 whole entry, one chain of several): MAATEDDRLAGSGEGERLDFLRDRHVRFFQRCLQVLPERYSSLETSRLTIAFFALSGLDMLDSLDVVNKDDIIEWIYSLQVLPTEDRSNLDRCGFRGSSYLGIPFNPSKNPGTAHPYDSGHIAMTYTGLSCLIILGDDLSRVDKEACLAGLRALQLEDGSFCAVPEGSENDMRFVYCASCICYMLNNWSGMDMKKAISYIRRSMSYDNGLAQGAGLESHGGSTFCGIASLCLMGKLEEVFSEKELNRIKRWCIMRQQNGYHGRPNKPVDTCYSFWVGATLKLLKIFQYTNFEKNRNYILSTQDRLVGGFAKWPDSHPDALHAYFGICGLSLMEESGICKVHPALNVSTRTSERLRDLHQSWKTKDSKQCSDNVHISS
Outline: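 Rat brain GGPT I, partially purified by ammonium sulfate fractionation and anion exchange, was assayed with [3H]geranylgeranyl pyrophosphate as isoprenoid donor. The acceptor was E. coli-expressed His6-tagged val12-Ha-Ras ending in CVLL. The protocol otherwise matched the farnesyl protein transferase assay.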

[3] = target: T2, farnesyl protein transferase (FPT), partially purified from rat brain (Rattus norvegicus, UniProt Q02293+Q04631); assay: Inhibition of farnesyl protein transferase (transfer of [3H]farnesyl to Ras-CVLS); format: biochemical
T2 construct: were partially purified from rat brain by ammonium sulfate fractionation followed by Q-Sepharose
T2 sequence (Q02293 whole entry, one chain of several): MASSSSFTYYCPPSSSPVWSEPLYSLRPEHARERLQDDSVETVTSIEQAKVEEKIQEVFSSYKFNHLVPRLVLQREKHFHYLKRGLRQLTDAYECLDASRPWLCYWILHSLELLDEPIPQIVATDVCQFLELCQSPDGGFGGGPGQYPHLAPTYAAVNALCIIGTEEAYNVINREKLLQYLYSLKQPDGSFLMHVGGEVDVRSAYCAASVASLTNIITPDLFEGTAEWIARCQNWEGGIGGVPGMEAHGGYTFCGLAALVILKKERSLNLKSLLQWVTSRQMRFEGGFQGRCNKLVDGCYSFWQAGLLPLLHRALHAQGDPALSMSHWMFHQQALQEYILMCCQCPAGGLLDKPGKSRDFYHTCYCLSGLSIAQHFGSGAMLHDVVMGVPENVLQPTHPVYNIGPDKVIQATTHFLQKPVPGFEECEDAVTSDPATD
Outline: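 Transfer of [3H]farnesyl onto E. coli-expressed, His6-tagged Ras-CVLS was measured after 30 min at room temperature. Radiolabelled Ras was TCA-precipitated on ice and filter-harvested, and inhibition was expressed as percent of DMSO control.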

[4] = test system: SW620 (human colon adenocarcinoma [lymph node metastasis]); assay: In vivo anti-tumor study, SW620; design: species or system athymic nu/nu female mice; conditions: SW620 tumor, 100 MPK, po, 10/wk, x4; for inhibition in vivo at 100 mg/kg: Mus musculus, SW-620, po
Description: Tumor bearing animals are selected and randomized when the tumors are established. […] The percent inhibition of tumor growth relative to vehicle controls are determined by tumor measurements.

[5] = test system: Ras-CVLS processing in COS monkey kidney cells; assay: COS cell assay: Ras-CVLS processing (Western blot); format: cell-based; conditions: COS cells, read-out: Inhibition of Ras Processing IC50
Outline: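 COS cells electroporated with Ras-CVLS (farnesyl transferase substrate) cDNA, with drug-containing fresh medium added at 24 h and cells examined at 48 h. TCA-precipitated cellular protein was resolved by SDS gel and immunoblotted with anti-p21 Ras monoclonal and HRP anti-rat IgG to monitor Ras processing.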

[6] = test system: T24-BAG4 human bladder carcinoma cells expressing an activated H-ras gene; assay: Cell Mat Assay: tumor cell colony inhibition (tIC50); format: cell-based; conditions: inhibition of tumor cell growth
Outline: as §1

[7] = test system: M27 (mouse Lewis lung carcinoma); assay: In vivo anti-tumor study, M27; design: species or system athymic nu/nu female mice; conditions: M27 tumor, 100 MPK, po, 10/wk, x3
Description: In vivo Anti-tumor Studies

[8] = Ras-CVLS farnesylation, partially purified rat brain FPT, read-out: FPT IC50
[9] = enzyme inhibition, read-out: FPT IC50

Row | Structure (SMILES) | IC50 [3, 8] | IC50 ([1]; Homo sapiens, Fibroblast) | IC50 ([5]; Primates, COS) | melting point | IC50 ([6]; Homo sapiens) | also measured
1 | O=C(Nc1ccccn1)N1CCN(C2c3ccc(Cl)cc3CCc3cccnc32)CC1 (stereo not shown) [187 (6.8)] | 0.95 µM | – | – | – | – | IC50 [1]: > 50 µM and 50 µM; IC50 [2]: > 46 µM; Average % Tumor Inhibition ([4]; listed as Ex. 187 (6.8), 100 mg/kg): 11% and 21%; IC50 [5]: 1.3 µM
2 | CN1C(=O)CC[C@H](C(=O)N2CCC(=C3c4ccc(Cl)cc4CCc4cccnc43)CC2)[C@H]1c1ccc(F)cc1 [Example 4] | 1 µM and 0.8 µM | – | – | – | – | inhibition in vivo at 100 mg/kg [4]: 2%
3 | O=C1CCC(C(=O)N2CCC(=C3c4ccc(Cl)cc4CCc4cccnc43)CC2)CC1 [Example 5] | 1.7 µM | > 50 µM | 9.2 µM | 200 °C | – | IC50 [1]: 100 µM; IC50 [2]: > 46 µM; IC50 [3, 9]: 1.7 µM; IC50 [5]: > 12 µM
4 | O=C(Cc1ccccn1)N1CCC(=C2c3ccc(Cl)cc3CCc3cccnc32)CC1 [Example 6] | 2 µM | 50 µM | 10 µM | 122 to 125 °C | 12.5 µM | –
5 | O=C(C(c1ccccc1)c1ccccc1)N1CCC(=C2c3ccc(Cl)cc3CCc3cccnc32)CC1 [Example 42] | 0.6 µM | > 50 µM | 5.8 µM | 114.2 to 115.8 °C | 50 µM | –
6 | O=C(Cc1ccc(Br)cc1)N1CCC(=C2c3ccc(Cl)cc3CCc3cccnc32)CC1 [Example 43] | 0.6 µM | 50 µM | 9.7 µM | 93.3 to 94.6 °C | 25 µM | –
7 | O=C(Cc1ccccc1)N1CCC(=C2c3ccc(Cl)cc3CCc3cccnc32)CC1 [Example 44] | 0.8 µM | 25 µM | 11.6 µM | 112 to 114.6 °C | 25 µM | –
8 | Cc1ccc(CC(=O)N2CCC(=C3c4ccc(Cl)cc4CCc4cccnc43)CC2)cc1 [Example 47] | 1.3 µM and 1.01 µM | – | – | – | – | IC50 [1]: > 50 µM; Average % Tumor Inhibition [7]: 19%; IC50 [5]: 11.1 µM; IC50 [6]: 12.5 µM
9 | CCC(C(=O)N1CCC(=C2c3ccc(Cl)cc3CCc3cccnc32)CC1)c1ccccc1 (stereo not shown) [Example 48] | 1.3 µM | 25 µM | 10.7 µM | 82.7 to 83.8 °C | 12.5 µM | –
10 | O=C(Cc1cccnc1)N1CCC(C2c3ccc(Cl)cc3CCc3cccnc32)CC1 (stereo not shown) [Example 82A, 4-(8-Chloro-6,11-dihydro-5H-benzo-[5,6]cyclohepta(1,2-b]pyridin-11-yl)-1-[(3-pyridinyl)acetyl]-piperidine] | – | – | – | 81.7 to 82 °C | – | inhibition in vivo at 100 mg/kg [4]: 27%
11 | CC(=O)N1CCC(C(=O)N2CCN(C3c4ccc(Cl)cc4CCc4cccnc43)CC2)CC1 (stereo not shown) [Example 192] | 1.24 µM | > 50 µM | 4.9 µM | – | 25 µM | IC50 [2]: > 43 µM; inhibition in vivo at 100 mg/kg [4]: 29%; IC50 ([6]; listed as 192 (5.65)): 37 µM
12 | O=C(Cc1cccnc1)N1CCC(C2c3ccc(Cl)cc3CCc3ccc[n+]([O-])c32)CC1 (stereo not shown) [Example 235] | 3.57 µM | > 50 µM | 9.1 µM | 61.8 to 62.3 °C | 12.5 µM | –
13 | O=C(Cc1ccncc1)N1CCC(C2c3ccc(Cl)cc3CCc3ccc[n+]([O-])c32)CC1 (stereo not shown) [Example 236] | 1.48 µM | > 50 µM | 3.5 µM | 116.7 to 117.6 °C | 4 µM | IC50 [2]: > 45 µM
14 | O=C(Cc1cc[n+]([O-])cc1)N1CCC(C2c3ccc(Cl)cc3CCc3ccc[n+]([O-])c32)CC1 (stereo not shown) [Example 238] | – | > 50 µM | – | 85 to 85.6 °C | > 50 µM | inhibition at 4 µM ([3]; at 4 μM): 26%
15 | O=C(Cc1cccnc1)N1CCC(=C2c3ccc(Cl)cc3CCc3cc(Br)cnc32)CC1 [Example 247] | 0.16 µM | > 50 µM | > 3.9 µM | 92 to 93 °C | – | IC50 [2]: > 40 µM; IC50 ([5]; listed as 247 (5.122)): 3.5 µM
16 | O=C(Cc1cccnc1)N1CCC(=C2c3ccc(Cl)cc3CCc3c(Cl)ccnc32)CC1 [Example 250] | 0.95 µM | > 50 µM | 8.6 µM | 59.8 to 63.5 °C | 18 µM | –
17 | O=C(Cc1cccnc1)N1CCC(=C2c3ccc(Cl)cc3CCc3c(On4nnc5ccccc54)ccnc32)CC1 [Example 251] | 0.76 µM | – | 8.1 µM | 120 to 122 °C | – | –
18 | CC(C)(C)OC(=O)NCCSc1ccnc2c1CCc1cc(Cl)ccc1C2=C1CCN(C(=O)Cc2cccnc2)CC1 [Example 260] | 9.9 µM | – | – | 59.8 to 63.5 °C | – | –
19 | CCc1cc2c(cc1Cl)C=Cc1cccnc1C2C1CCN(C(=O)Cc2cccnc2)CC1 (stereo not shown) [Example 270] | 2.8 µM | – | – | 67.2 to 69.8 °C | – | –
20 | O=C(Cc1ccncc1)N1CCC(=C2c3ccc(Cl)cc3CCc3cc([N+](=O)[O-])cnc32)CC1 [Example 358] | 0.57 µM | – | – | 111.3 to 112.2 °C | – | –
21 | Nc1cnc2c(c1)CCc1cc(Cl)ccc1C2=C1CCN(C(=O)Cc2ccncc2)CC1 [Example 402] | – | > 25 µM | > 10 µM | 133.2 to 133.4 °C | 18 µM | IC50 ([3]; FPT IC50, enzyme inhibition): 1 µM
22 | CN1CCC(CC(=O)N2CCC(=C3c4ccc(Cl)cc4CCc4c3ncc(Br)c4Cl)CC2)CC1 [Example 413] | – | 10 µM | 1.5 µM | 105 °C (dec.) | > 6.25 µM | IC50 [2]: > 35 µM; IC50 [3, 9]: 0.103 µM
23 | O=C(Nc1ccccc1)N1CCC(=C2c3ccc(Cl)cc3CCc3c2ncc(Br)c3Cl)CC1 [Example 414] | – | – | – | 125.6 °C (dec.) | – | IC50 [3, 9]: 0.9 µM
24 | O=C(Cc1ccncc1)N1CCC(=C2c3ccc(Cl)cc3CCc3cc(Br)c(O)nc32)CC1 [Example 415] | – | – | – | 150 °C (dec.) | – | IC50 [3, 9]: > 3.8 µM
25 | Cn1cc(Br)c(=O)c2c1C(=C1CCN(C(=O)Cc3ccncc3)CC1)c1ccc(Cl)cc1CC2 [Example 416] | 3.7 µM | – | – | 142 °C (dec.) | – | –
26 | O=C(Nc1ccncc1)N1CCC(=C2c3ccc(Cl)cc3CCc3cc(Cl)ccc32)CC1 [Example 423] | – | – | – | 206.4 to 207 °C | – | FPT inhibition at the concentration in parentheses ([3]; (4.3) μM): 35 (4.3); IC50 [3, 9]: > 4.3 µM
27 | O=C(O)c1ccc2c(c1)CCc1cccnc1C2=C1CCN(C(=O)Cc2ccncc2)CC1 [Example 435] | – | – | – | 238 to 240 °C | – | IC50 [3, 9]: 7 µM
28 | O=C(NCc1ccccc1)c1ccc2c(c1)CCc1cccnc1C2=C1CCN(C(=O)Cc2ccncc2)CC1 [Example 436] | 17 µM | – | – | 118 to 120 °C | – | –
29 | O=C(Nc1ccc2c(c1)CCc1cccnc1C2=C1CCN(C(=O)Cc2ccncc2)CC1)OCc1ccccc1 [Example 437] | – | – | – | 132.8 to 133.7 °C | – | FPT inhibition at the concentration in parentheses ([3]; (11) μM): 36 (11)
